Experimental data as given in ChEMBL document CHEMBL1137396, “Discovery of (1R,5S)-N-[3-amino-1-(cyclobutylmethyl)-2,3-dioxopropyl]- 3-[2(S)-[[[(1,1-dimethylethyl)amino]carbonyl]amino]-3,3-dimethyl-1-oxobutyl]- 6,6-dimethyl-3-azabicyclo[3.1.0]hexan-2(S)-carboxamide (SCH 503034), a selective, potent, orally bioavailable hepatitis C virus NS3 protease …” (J Med Chem, 2006).

Assays:
NS3 = NS3 (Hepatitis C virus, UniProt A3EZJ3); test: Binding affinity at HCV NS3 protease; set-up: species or system Hepatitis C virus subtype 1b
[1] = Selectivity for human neutrophil elastase (HNE) over HCV NS3 protease
Huh-5-2 = test: Cytotoxicity against hepatoma cell line containing HCV replicon measured as change in GAPDH RNA level; type: functional, Homo sapiens
[2] = AUC in monkey at 2 mg/kg, po; conditions: rhesus monkey, plasma
Hepatocyte = test: Inhibition of HCV replication in hepatocytes measured by cellular replicon assay; type: functional; conditions: Hepatitis C virus
[3] = Bioavailability in rat at 10 mg/kg, po; type: ADME, organism-based; conditions: in vivo
[4] = AUC in rat at 10 mg/kg, po; type: ADME, organism-based; set-up: dose 10 mg/kg, route oral; conditions: plasma
[5] = Bioavailability in dog at 2 mg/kg, po; type: ADME, organism-based, Canis lupus familiaris; conditions: in vivo
[6] = Bioavailability in monkey at 2 mg/kg, po; conditions: rhesus monkey, in vivo
[7] = AUC in dog at 2 mg/kg, po; type: ADME, organism-based, Canis lupus familiaris; set-up: dose 2 mg/kg, route oral; conditions: plasma
[8] = Ratio of drug level in liver against plasma in rat; type: ADME, organism-based
[9] = Bioavailability in mouse; type: ADME, organism-based; conditions: in vivo
[10] = Bioavailability in monkey at 3 mg/kg, po; conditions: rhesus monkey, in vivo
[11] = AUC in dog at 3 mg/kg, po; type: ADME, organism-based, Canis lupus familiaris; set-up: dose 3 mg/kg, route oral; conditions: plasma
[12] = AUC in monkey at 3 mg/kg, po; conditions: rhesus monkey, plasma
[13] = Bioavailability in dog at 3 mg/kg, po; type: ADME, organism-based, Canis lupus familiaris; conditions: in vivo

Sequence of NS3 (A3EZJ3 whole entry): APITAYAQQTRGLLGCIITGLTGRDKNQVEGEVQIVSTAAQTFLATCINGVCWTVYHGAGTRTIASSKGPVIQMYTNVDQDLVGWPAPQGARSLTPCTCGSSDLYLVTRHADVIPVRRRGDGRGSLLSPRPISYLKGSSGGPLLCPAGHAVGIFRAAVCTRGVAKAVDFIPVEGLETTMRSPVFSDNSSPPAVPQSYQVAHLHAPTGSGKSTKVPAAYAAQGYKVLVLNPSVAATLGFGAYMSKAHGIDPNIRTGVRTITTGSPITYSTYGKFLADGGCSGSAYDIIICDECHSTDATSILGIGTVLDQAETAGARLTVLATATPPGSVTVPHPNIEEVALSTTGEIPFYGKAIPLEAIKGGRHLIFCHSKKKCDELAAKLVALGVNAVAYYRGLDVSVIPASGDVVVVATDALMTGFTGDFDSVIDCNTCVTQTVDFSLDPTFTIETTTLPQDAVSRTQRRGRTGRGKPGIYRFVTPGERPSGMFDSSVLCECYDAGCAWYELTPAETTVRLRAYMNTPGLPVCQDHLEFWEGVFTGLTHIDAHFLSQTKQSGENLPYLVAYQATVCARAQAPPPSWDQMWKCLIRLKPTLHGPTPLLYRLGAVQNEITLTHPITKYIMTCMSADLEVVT

Ki (NS3) [nM] | Selectivity ratio [1] | AUC [2] [µM·h] | bioavailability [3] [%] | AUC [4] [µM·h] | bioavailability [5] [%] | bioavailability [6] [%] | AUC [7] [µM·h] | Structure (SMILES) | Activity (Huh-5-2) [µM] | EC90 (Hepatocyte) [nM] | Kp [8] | bioavailability [9] [%] | bioavailability [10] [%] | AUC [11] [µM·h] | AUC [12] [µM·h] | bioavailability [13] [%]
13 | 369 | 0.05 | 16 | 1 | 36 | 2 | 1.6 | CC(C)(C)NC(=O)N[C@H](C(=O)N1C[C@H]2[C@@H]([C@H]1C(=O)NC(CC1CC1)C(=O)C(N)=O)C2(C)C)C(C)(C)C (stereo not given in full) | >5 | 400 |  |  |  |  |  | 
8 | 138 |  | 28 | 1.5 |  |  |  | CC(C)(C)OC(=O)N[C@H](C(=O)N1C[C@H]2[C@@H]([C@H]1C(=O)NC(CC1CCC1)C(=O)C(N)=O)C2(C)C)C1CCCCC1 (stereo not given in full) | >5 | 700 |  |  | 1 |  | 0.11 | 

Structure (SMILES) | Ki (NS3) [nM] | Selectivity ratio [1] | AUC [2] [µM·h] | bioavailability [3] [%] | AUC [4] [µM·h] | bioavailability [5] [%] | bioavailability [6] [%] | AUC [7] [µM·h] | Activity (Huh-5-2) [µM] | EC90 (Hepatocyte) [nM] | Kp [8] | bioavailability [9] [%] | bioavailability [10] [%] | AUC [11] [µM·h] | AUC [12] [µM·h] | bioavailability [13] [%]
CC(C)(C)NC(=O)N[C@H](C(=O)N1C[C@H]2[C@@H]([C@H]1C(=O)NC(CC1CCC1)C(=O)C(N)=O)C2(C)C)C(C)(C)C (stereo not given in full) [BOCEPREVIR] | 14 | 2200 |  | 26 | 1.52 |  |  |  | >5 | 350 | 30 | 34 | 4 | 3.08 | 0.12 | 30
